# Source: ChEMBL document CHEMBL1201862, “PubChem BioAssay data set” (2004)
# The source made the active and inactive calls. Rule as the data show it: actives have a measured IC50 and inactives only a lower limit.
# Target: Envelope glycoprotein gp160 (Human immunodeficiency virus 1, UniProt Q6QLK5)
# Assay: cell-free HIV fusion peptide-binding blockers – biochemical, uHTS, fluorescence dequenching, […] (AID 1986)
# Sequence of Envelope glycoprotein gp160 (Q6QLK5 whole entry, the tested form may be a part): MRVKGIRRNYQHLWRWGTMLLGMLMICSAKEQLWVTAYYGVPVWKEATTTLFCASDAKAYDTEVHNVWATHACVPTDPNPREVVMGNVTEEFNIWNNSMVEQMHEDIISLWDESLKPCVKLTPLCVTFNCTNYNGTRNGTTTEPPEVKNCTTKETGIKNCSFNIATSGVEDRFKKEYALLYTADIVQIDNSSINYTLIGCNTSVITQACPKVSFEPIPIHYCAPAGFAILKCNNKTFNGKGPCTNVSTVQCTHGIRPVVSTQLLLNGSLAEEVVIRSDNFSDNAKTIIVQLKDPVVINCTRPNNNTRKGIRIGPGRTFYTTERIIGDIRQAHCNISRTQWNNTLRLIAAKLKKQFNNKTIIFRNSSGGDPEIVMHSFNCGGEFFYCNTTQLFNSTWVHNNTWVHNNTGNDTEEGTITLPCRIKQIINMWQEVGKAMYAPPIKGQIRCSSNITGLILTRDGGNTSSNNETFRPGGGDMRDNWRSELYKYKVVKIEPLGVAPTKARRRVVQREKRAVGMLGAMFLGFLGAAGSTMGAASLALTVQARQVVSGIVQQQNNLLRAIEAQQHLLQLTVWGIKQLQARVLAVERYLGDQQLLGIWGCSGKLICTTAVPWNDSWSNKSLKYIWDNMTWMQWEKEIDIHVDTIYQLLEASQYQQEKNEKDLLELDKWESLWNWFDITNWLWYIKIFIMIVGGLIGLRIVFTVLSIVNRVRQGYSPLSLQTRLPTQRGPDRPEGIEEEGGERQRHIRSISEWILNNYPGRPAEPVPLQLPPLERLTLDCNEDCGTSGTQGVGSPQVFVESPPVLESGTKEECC
row,Compound,IC50
1,CCn1nc([N+](=O)[O-])c(C(C#N)c2nc3cc(C(F)(F)F)ccc3s2)c(Cl)c1=O (stereo not drawn),14.9 µM (active)
2,CC(c1ccccc1)N1C(=O)c2ccc(C(=O)Nc3ccccc3C(=O)O)cc2C1=O (stereo not drawn),19.3 µM (active)
3,Cc1c2c(=O)n(-c3nc4ccccc4s3)nc-2cc(O)n1Cc1ccccc1,13.8 µM (active)
